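The compound was tested at five concentrations on cells cultured in 96-well plates, with a 48-hour exposure period. Abbreviation: GI50, concentration required for 50% inhibition of growth.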 The source made the active and inactive calls. Rule as the data show it: active = GI50 up to about 1.1 µM and inactive = higher.

7 compounds from ChEMBL document CHEMBL1201862, “PubChem BioAssay data set” (2004) can be followed below.

Among the test systems are MOLT-4; IGROV-1; DU-145; SK-MEL-2; OVCAR-8; A498; LOX IMVI; SW-620; A549; UACC-257; HCT-116; NCI/ADR-RES; UO-31; HT-29; T47D; OVCAR-3; HL-60; HOP-62; M14; PC-3.
Holding throughout (assay): inhibition of tumour cell growth, NCI panel, 48 h

In the case of `C=CCOc1ccc(C(=N/NC(=O)c2ccccc2)/N=N/c2ccccc2)cc1OC`, the GI50 is 42.6 µM (inactive) in the assay with MOLT-4; > 100 µM (inactive) with IGROV-1; > 100 µM (inactive) in the assay with DU-145; > 100 µM (inactive) in the assay with SK-MEL-2; 65.3 µM (inactive) in the assay with OVCAR-8; > 100 µM (inactive) in the assay with A498. In addition, the GI50 in the assay on LOX IMVI is 42.1 µM (inactive); with SW-620, > 100 µM (inactive); in the assay with A549, > 100 µM (inactive); with UACC-257, > 100 µM (inactive); with HCT-116, 67.9 µM (inactive); in the assay on NCI/ADR-RES, 84.3 µM (inactive). Moreover, the GI50 in the assay with UO-31 was 92.9 µM (inactive); in the assay on HT-29, 46.5 µM (inactive); in the assay on T47D, 24 µM (inactive); with OVCAR-3, 86.9 µM (inactive); with HL-60 it was 37.8 µM (inactive); with HOP-62, > 100 µM (inactive). For the same compound, the GI50 in the assay with M14 was > 100 µM (inactive); in the assay with PC-3, 79.1 µM (inactive).
Consider `CC(=O)N1CC[N+](C)(CCCCN2c3ccccc3Sc3cc(N=[N+]=[N-])ccc32)CC1`, for which the GI50 in the assay with MOLT-4, with IGROV-1, in the assay on DU-145, in the assay with SK-MEL-2, in the assay with OVCAR-8 and in the assay on A498 was > 100 µM (inactive) in each case. The GI50 in the assay on LOX IMVI, in the assay on SW-620, with A549, with UACC-257, in the assay with HCT-116 and in the assay with NCI/ADR-RES was > 100 µM (inactive) in each case. Besides, the GI50 was > 100 µM (inactive) with UO-31; > 100 µM (inactive) in the assay with HT-29; > 100 µM (inactive) in the assay on T47D; > 100 µM (inactive) in the assay with OVCAR-3; 86.5 µM (inactive) in the assay with HL-60; > 100 µM (inactive) with HOP-62. Further, the GI50 with M14 and in the assay with PC-3 was > 100 µM (inactive) throughout.
With `CC(=O)NC1C(OCc2ccccc2)OC(CO)C(O)C1OCC(=O)N[C@@H](C)C(=O)N[C@H](CCC(=O)NCCCNc1c2ccccc2nc2cccc([N+](=O)[O-])c12)C(N)=O` (stereo not given in full), the GI50 with MOLT-4 is 0.0269 µM (active); in the assay with IGROV-1, 0.0506 µM (active); in the assay on DU-145, 0.0308 µM (active); in the assay on SK-MEL-2, 0.0404 µM (active); in the assay with OVCAR-8, 0.0746 µM (active); with A498, 0.0547 µM (active). Moreover, the GI50 in the assay on LOX IMVI was 0.0439 µM (active); in the assay with SW-620 it was 0.0172 µM (active); in the assay on A549, 0.0245 µM (active); in the assay on UACC-257, 0.0448 µM (active); in the assay with HCT-116, < 0.0127 µM (active); in the assay on NCI/ADR-RES, 0.564 µM (active). Also, the GI50 was 0.123 µM (active) in the assay on UO-31; < 0.0149 µM (active) in the assay with HT-29; 0.047 µM (active) in the assay on T47D; 0.0678 µM (active) with OVCAR-3; 0.0559 µM (active) in the assay with HL-60; 0.08 µM (active) in the assay on HOP-62. Also, the figures for the GI50 in the assay on M14 and in the assay on PC-3 were 0.0341 µM (active) and 0.0368 µM (active), respectively.
With `O=C(Nc1nc2ncn(CCOC(=O)c3ccccc3)c2c(=O)[nH]1)c1ccccc1`, the GI50 was 6.64 µM (inactive) in the assay on MOLT-4; 21 µM (inactive) with IGROV-1; 31.8 µM (inactive) in the assay with DU-145; 35.2 µM (inactive) in the assay with SK-MEL-2; 33.3 µM (inactive) in the assay with OVCAR-8; > 100 µM (inactive) in the assay on A498. Besides, the GI50 with LOX IMVI is 5.92 µM (inactive); in the assay with SW-620, 4.98 µM (inactive); in the assay on A549, 8.09 µM (inactive); in the assay with UACC-257 it was > 95.7 µM (inactive); in the assay with HCT-116, 4.43 µM (inactive); in the assay on NCI/ADR-RES, 66.2 µM (inactive). In addition, the GI50 is 51.9 µM (inactive) with UO-31; 3.68 µM (inactive) in the assay on HT-29; 28.9 µM (inactive) in the assay on T47D; 29.5 µM (inactive) with OVCAR-3; 2.59 µM (inactive) in the assay on HL-60; 20.4 µM (inactive) in the assay on HOP-62. In addition, the GI50 was 15.3 µM (inactive) in the assay on M14 and 47.2 µM (inactive) with PC-3.
As for `CC(=O)OCC1OC(n2c(C)c(C(C)=O)c(-c3ccc(Cl)cc3)c(C#N)c2=S)C(OC(C)=O)C(OC(C)=O)C1OC(C)=O` (stereo not given), the GI50 with MOLT-4, in the assay on IGROV-1, in the assay on DU-145, in the assay on SK-MEL-2, in the assay with OVCAR-8 and in the assay with A498 was > 100 µM (inactive) throughout. Moreover, the GI50 in the assay with LOX IMVI, in the assay with SW-620, with A549, in the assay with UACC-257, in the assay on HCT-116 and in the assay on NCI/ADR-RES was > 100 µM (inactive) in each case. The GI50 in the assay on UO-31, with HT-29, in the assay with T47D, with OVCAR-3, in the assay on HL-60 and with HOP-62 was > 100 µM (inactive) each time. The GI50 in the assay on M14 and in the assay with PC-3 was > 100 µM (inactive) in each case.
Regarding `C=C(C)[C@@H]1CC[C@]2(C(=O)O)CC[C@]3(C)[C@H](CC[C@@H]4[C@@]5(C)CC[C@H](C(=O)/C=C/c6ccc(O)cc6)C(C)(C)[C@@H]5CC[C@]43C)[C@@H]12`, the GI50 was 2.85 µM (inactive) with MOLT-4; 8.17 µM (inactive) in the assay on IGROV-1; 5.73 µM (inactive) in the assay with DU-145; 16.3 µM (inactive) in the assay with SK-MEL-2; 4.3 µM (inactive) with OVCAR-8; 5.07 µM (inactive) in the assay with A498. Also, the GI50 is 3.54 µM (inactive) in the assay with LOX IMVI; 2.93 µM (inactive) in the assay with SW-620; 9.73 µM (inactive) in the assay on A549; 3.58 µM (inactive) in the assay on UACC-257; 2.51 µM (inactive) with HCT-116; 3.22 µM (inactive) in the assay on NCI/ADR-RES. For the same compound, the GI50 in the assay on UO-31 was 5.2 µM (inactive); with HT-29 it was 3.38 µM (inactive); with T47D it was 4.58 µM (inactive); in the assay on OVCAR-3, 3.39 µM (inactive); with HL-60, 1.15 µM (inactive); with HOP-62, 8.39 µM (inactive). Moreover, the GI50 was 7.13 µM (inactive) with M14 and 5.98 µM (inactive) in the assay on PC-3.
In the case of `O=C1C=CC2CCC1C2` (stereo not given), the GI50 with MOLT-4 was 26.4 µM (inactive); with IGROV-1, 53.3 µM (inactive); in the assay on DU-145 it was 34.2 µM (inactive); in the assay on SK-MEL-2 it was 21.4 µM (inactive); in the assay on OVCAR-8, 28.7 µM (inactive); with A498 it was 90.2 µM (inactive). Also, the GI50 with LOX IMVI is 29.4 µM (inactive); in the assay on SW-620, 32.1 µM (inactive); with A549 it was 40.6 µM (inactive); in the assay on UACC-257, 46.8 µM (inactive); in the assay on HCT-116, 23.4 µM (inactive); in the assay with NCI/ADR-RES, 22.4 µM (inactive). For the same compound, the GI50 is 31.2 µM (inactive) in the assay with UO-31; 32.3 µM (inactive) in the assay with HT-29; 19.9 µM (inactive) in the assay on T47D; 43.1 µM (inactive) in the assay on OVCAR-3; 19.2 µM (inactive) in the assay on HL-60; 43.1 µM (inactive) in the assay with HOP-62. Also, the GI50 with M14 was 27.4 µM (inactive); with PC-3, 45 µM (inactive).
